The values that follow come from patent US20260275280A1, “DIRECTED DIFFERENTIATION PROTOCOLS TO DERIVE BONE FIDE SPINAL SENSORY INTERNEURONS” (THE REGENTS OF THE UNIVERSITY OF CALIFORNIA, priority 2022, published 2026).

One assay deals with mESCs-derived NMPs. The assay can be described thus: 2D directed differentiation of NMPs with RA/BMP4, immunohistochemistry (pSmad1/5/8, Pax3, Pax6, Sox2, Tuj1, Pax2). Format: cell-based, mouse. The conditions noted are these: 24 hr pulse of RA at day 3. As to the method: The mouse ESC line, MM13, was routinely maintained in ES cell media (DMEM+20% FBS) with 100u/ml of mouse leukocyte inducing factor (LIF). […] To prepare cells for the differentiation, ESC colonies were dissociated with 0.25% trypsin and plated on gelatin coated plates at 1:10 dilution to reduce MEF transfer. Cells cultured on gelatin coated plates and allowed to proliferate for 1-2 days. To initiate differentiation, cells were plated on 0.1% gelatin coated 24-well CellBIND dishes (Corning) at 20,000 cells/ml density in 0.5 ml/well N2/B27 medium that contains 10 ng/ml basic fibroblast growth factor (bFGF). The N2/B27 medium contains 1:1 portions of Advanced Dulbecco's modified Eagle Media (DMEM) F12 (Hyclone) and Neurobasal media (Thermo Fisher Scientific) supplemented with 0.5×N2, 1×B27 supplement (with Vitamin A), 2 mM L-glutamine, 0.1 mM 2-mercaptoethanol (ME), and 1% BSA. On day 1, small colonies of cells can be observed attached to the bottom of the wells. On day 2, cells were supplemented with 10 ng/ml bFGF and 5 μM CHIR99021 for 24 hours to induce a neuromesodermal identity (Gouti et al., 2014). On day 3, media was changed as follows: for protocol 1, cells were exposed to 100 nM RA for 48 hrs. […] At the end of the differentiation, the cultures were fixed for immunohistochemical analysis or lysed to obtain RNA for RNA-Seq or quantitative reverse transcriptase PCR analysis. […]

The next assay has as its system hESCs/hiPSCs. The assay can be described thus: Induction of NMPs from hPSCs in 2D culture (FGF2, CHIR99021). Conditions: N2/B27 with FGF2 and CHIR99021, up to day 6. Type of assay: cell-based, human. As to the method: Add 2 mL N2/B27 media containing 10ng of FGF2 and SuM of CHIR99021 (Wnt signaling agonist) to each well of the 6-well plate and return the plate to the incubator. Feed cells every other day with N2/B27 media for up to 6 days. Cells should appear as a monolayer with cells packed together tightly at the end of day 6 (FIG. 16A). This confluency is optimal for embryoid body (EB) formation in the next step.

Assay [1] has as its system dorsal NPCs in mESC-derived EBs. Description: Embryoid body proliferation assay (EdU incorporation, pH3) with CHIR. Format: cell-based, mouse. The method, then: Embryoid body (EB) culture. and expansion: To initiate EB formation, dissociated embryonic stem cells were seeded in low attachment plates (Corning) at 10^5 cells/ml density in N2/B27 medium supplemented with 10 ng/ml bFGF. To induce posterior spinal cord and dorsal spinal patterning, RA and RA+BMP4 were added using the same timeline as described for the 2D differentiation, and the media was changed at every other day after day 5.
For EBs, EBs were collected and fixed with fresh 4% PFA for 20 minutes at 4° C. EBs were then equilibrated with 30% sucrose for overnight at 4C and embedded into the OCT compound for cryo-sectioning. 12 um sections were collected onto positive charged slides (VVVR), incubated with the antibody blocking solution for 1 hr, and then stained as above.
Image quantification: To count the number of nuclei, images were converted to 8 bit image in ImageJ, their threshold intensity was adjusted to capture only the florescent nuclei, and the number of nuclei counted using the analyze particle tool in ImageJ. For each image, the area under the DAPI staining was determined using ImageJ and target cells were represented as % of cells in 100 μm^2 DAPI^+ area.
We then asked whether activating Wnt signaling in mESC-derived NMPs affected their mitotic index. To better visualize proliferation, mESCs were permitted to assemble into three dimensional EBs (Andrews et al., 2017; Duval et al., 2019; Gupta et al., 2018), and then treated with RA±BMP4 over the same timeline as protocol 1 and 3 (FIG. 1B) to induce dorsal spinal cord patterning. EBs were then cultured with either DMSO or CHIR from day 5 to day 9 (FIG. 6C), when the cultures were pulsed with 5-Ethynyl-2′-deoxyuridine (EdU) to label cells in S-phase of the cell cycle. Strikingly, there was a ~3-fold increase in EdU+cells in CHIR-treated EBs (FIG. 6E, 6G, 6H) compared to DMSO control (FIG. 6D, 6F, 6H) in both protocols. […] Many of the dividing cells in the CHIR-treated cultures were Sox2+NPCs (FIG. 6E, 6G), while NPCs are largely depleted by day 9 in control cultures (FIG. 6D, 6F). Thus, extending the window of Wnt signaling appears to prolong NPC proliferation.

[2] abbreviates: RA±BMP4 patterned EBs, CHIR day 5 to day 9.

SMILES strings stand for the structures. Entries after “also recorded” stand apart in the source; their conditions may differ.

Regarding `CC1=C(/C=C/C(C)=C/C=C/C(C)=C/C(=O)O)C(C)(C)CCC1` [RA, retinoic acid], the “Pax3+ cells by day 4” value in the assay on mESCs-derived NMPs was 90-95%.

For `Cc1c[nH]c(-c2cnc(NCCNc3ccc(C#N)cn3)nc2-c2ccc(Cl)cc2Cl)n1` [CHIR, CHIR99021], the “growth rate of the hPSC/NMP monolayer” value with hESCs/hiPSCs is recorded as “induces a higher growth rate in the monolayer”. In addition, in assay [1] (setting [2]), the “increase in EdU+ cells compared to DMSO control” value is ~ 3 fold and the “increase in the number of pHistone H3 (pH3)+ cells compared to control” value is listed as 2-4 fold. In addition, the “increase in cell proliferation (EdU+ and pH3+ cells) compared to DMSO” value in assay [1] (RA±BMP4 patterned EBs, n=15-25 EBs) was ~ 3 fold. Besides, the “identity of CHIR-treated NPCs (Pax3, Pax7, Olig3)” value in assay [1] (protocol 1 and protocol 3 EBs, day 9) is given as “retained their original identity; also recorded: does not significantly (unpaired t-test) alter their dorsal-ventral identities”.
